From US20090029992A1, “SUBSTITUTED PYRAZOLE COMPOUNDS” (priority 2007, published 2009)

Tests used:
[1] = target: T1, N-terminal His-tagged human Src (Homo sapiens, UniProt P12931); assay: Src kinase inhibition assay (33P-ATP filter assay); assay type: biochemical
T1 construct: His (N); purchased Upstate USA Inc, 706 Forest Street, Charlottesville, Va
Experimental: Compounds were assayed for Src kinase inhibitory activity using N-terminal His-tagged human Src (Upstate USA Inc, 706 Forest Street, Charlottesville, Va.). Serial dilutions of compound were assayed in a final reaction volume of 25 μL by incubating a solution of the above Src kinase (5-10 mU), 8 mM MOPS (3-(N-morpholino) propanesulfonic acid) pH 7.0, 0.2 mM EDTA (ethylenediamine tetracetic acid), 250 μM amino acid sequence KVEKIGEGTYGVVYK (Upstate USA Inc, 706 Forest Street, Charlottesville, Va.), and 10 mM magnesium acetate and [γ-^33P-ATP] (specific activity of about 500 cpm/μmol, concentration as required). The reaction was initiated by the addition of the magnesium acetate and [γ-^33P-ATP] mixture. After incubation for 40 minutes at room temperature, the reaction was stopped by the addition of 5 μL of a 3% phosphoric acid solution. A 10 μL aliquote of the reaction was then spotted onto a P30 filtermat (PerkinElmer, Wellesley, Mass.) and washed three times for five minutes in 75 mM phosphoric acid and once in methanol prior to drying and scintillation counting. Inhibition of Src activity was determined by comparison to assays that contained no inhibitor.

[2] = target: T2, N-terminal GST-tagged recombinant human Flt3, residues 564-end (Homo sapiens, UniProt P36888); assay: Flt3 kinase inhibition assay (33P-ATP filter assay); assay type: biochemical; details: 40 minutes at room temperature
T2 construct: recombinant human Flt3, residues 564-end; GST (N); purchased Upstate USA Inc, 706 Forest Street, Charlottesville, Va
T2 sequence (P36888 564-993 limits assumed): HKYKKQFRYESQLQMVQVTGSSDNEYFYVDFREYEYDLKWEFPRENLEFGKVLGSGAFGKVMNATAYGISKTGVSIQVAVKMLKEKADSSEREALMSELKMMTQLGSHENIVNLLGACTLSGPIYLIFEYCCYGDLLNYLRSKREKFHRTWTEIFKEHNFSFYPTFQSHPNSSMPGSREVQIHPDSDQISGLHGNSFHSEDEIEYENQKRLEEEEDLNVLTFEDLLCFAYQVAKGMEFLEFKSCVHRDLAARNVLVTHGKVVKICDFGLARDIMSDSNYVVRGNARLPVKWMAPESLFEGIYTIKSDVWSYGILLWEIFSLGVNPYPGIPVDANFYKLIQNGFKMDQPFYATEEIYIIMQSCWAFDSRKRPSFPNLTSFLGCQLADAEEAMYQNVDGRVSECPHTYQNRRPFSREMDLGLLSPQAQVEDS
Experimental: (§1) Compounds were assayed for Flt3 kinase inhibitory activity using N-terminal GST-tagged recombinant human Flt3, residues 564-end (Upstate USA Inc, 706 Forest Street, Charlottesville, Va.). Serial dilutions of compound were assayed in a final reaction volume of 25 μL by incubating a solution of the above Flt3 kinase (5-10 mU), 8 mM MOPS (3-(N-morpholino) propanesulfonic acid) pH 7.0, 0.2 mM EDTA (ethylenediamine tetracetic acid), 50 μM amino acid sequence EAIYAAPFAKKK (Upstate USA Inc, 706 Forest Street, Charlottesville, Va.), and 10 mM magnesium acetate and [γ-^33P-ATP] (specific activity of about 500 cpm/μmol, concentration as required). The reaction was initiated by the addition of the magnesium acetate and [γ-^33P-ATP] mixture. After incubation for 40 minutes at room temperature, the reaction was stopped by the addition of 5 μL of a 3% phosphoric acid solution. A 10 μL aliquote of the reaction was then spotted onto a P30 filtermat (PerkinElmer, Wellesley, Mass.) and washed three times for five minutes in 75 mM phosphoric acid and once in methanol prior to drying and scintillation counting. Inhibition of Flt3 activity was determined by comparison to assays that contained no inhibitor.

[3] = target: T3, N-terminal His6-tagged recombinant human KDR, residues 790-end (Homo sapiens, UniProt P35968); assay: KDR kinase inhibition assay (33P-ATP filter assay); assay type: biochemical
T3 construct: recombinant human KDR, residues 790-end; His6 (N); purchased Upstate USA Inc, 706 Forest Street, Charlottesville, Va
T3 sequence (P35968 790-1356 limits assumed): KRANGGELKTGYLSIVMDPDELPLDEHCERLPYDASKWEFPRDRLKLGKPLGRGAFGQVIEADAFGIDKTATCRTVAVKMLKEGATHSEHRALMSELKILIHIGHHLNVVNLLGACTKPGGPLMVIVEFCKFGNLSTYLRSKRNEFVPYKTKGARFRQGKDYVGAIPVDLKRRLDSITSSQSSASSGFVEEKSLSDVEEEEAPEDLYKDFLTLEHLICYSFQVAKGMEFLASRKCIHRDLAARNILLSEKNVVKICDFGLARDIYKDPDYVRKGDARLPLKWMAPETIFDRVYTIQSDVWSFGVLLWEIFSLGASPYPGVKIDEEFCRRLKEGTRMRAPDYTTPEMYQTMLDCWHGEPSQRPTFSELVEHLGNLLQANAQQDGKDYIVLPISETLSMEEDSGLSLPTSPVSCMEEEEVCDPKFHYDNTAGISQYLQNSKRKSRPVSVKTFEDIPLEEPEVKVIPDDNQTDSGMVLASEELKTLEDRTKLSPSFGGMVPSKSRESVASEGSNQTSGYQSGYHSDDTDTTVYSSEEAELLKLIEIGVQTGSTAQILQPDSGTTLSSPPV
Experimental: as §1, with “KDR” for “Flt3”, “His6-tagged” for “GST-tagged”, “KDR,” for “Flt3,”, “790-end” for “564-end”, “0.33 mg/mL myelin basic protein” for “50 μM amino acid sequence EAIYAAPFAKKK”

HCT116 cells = assay: Whole cell cytotoxicity assay, Sulforhodamine B; assay type: cell-based; details: Homo sapiens, HCT-116, HCT116, 96 hours incubation, SRB; for GI50: read-out: GI50 HCT116 cell growth; for IC50: read-out: IC50 values in this assay (HCT116 cell growth)
Experimental: Human tumor-derived cell lines, HCT116 or MCF7 (ATCC) were plated in a 96 well plate in DMEM containing 10% fetal bovine serum and 2 mM L-glutamine at a density of 500 HCT116 cells or 1,000 MCF7 cells per well and incubated at 37° C., 5% CO2, for 24 hours prior to the addition of experimental compounds. Compounds were added using the dilution series indicated to duplicate plates and the cells were incubated in media plus compound for 96 hours. An additional plate was fixed in 10% TCA at the time of the addition of compound to provide a measurement of the cell population at time zero, the time of drug addition. Following the 96 hour incubation, cells were fixed in situ by gently aspirating off the culture media and then adding 50 ul of ice cold 10% TCA per well and incubation at 4° C. for 60 minutes. The plates were washed with tap water five times and allowed to air dry for 5 minute. 50 ul of a 0.4% (w/v) Sulforhodamine B solution in 1% (v/v) acetic acid was added per well and the cells were incubated for 30 minutes at room temperature. Following staining, plates were washed four times with 1% acetic acid to remove any unbound dye and then allowed to air dry for 5 minutes. The stain was solubilized with 100 ul of 10 mM Tris pH 10.5 per well and placed on an orbital rotator for 5 minutes. The absorbance was read at 570 nm. Percentage growth was calculated using the absorbance readings from the time zero plate (Tz) and the dilution series plate […] which included a column of cells grown in media without compound as a control (C) using the formulas:
[(Ti−Tz)/(C−Tz)]×100 for concentrations for which Ti>/=Tz
[(Ti−Tz)/Tz]×100 for concentrations for which Ti<Tz.
Three dose response parameters were calculated for each experimental agent. Growth inhibition of 50% (GI50) was calculated from [(Ti−Tz)/(C−Tz)]×100=50, which was the drug concentration resulting in a 50% reduction in the net protein increase (as measured by SRB staining) in control cells during the drug incubation. The drug concentration resulting in total growth inhibition (TGI) was calculated from Ti=Tz. The LC50 (concentration of drug resulting in a 50% reduction in the measured protein at the end of the drug treatment as compared to that at the beginning) indicating a net loss of cells following treatment ws calculated from [(Ti−Tz)/Tz]×100=−50. Values are calculated for each of these three parameters if the level of activity was reached; however, if the effect was not reached or was exceeded, the value for that parameter is expressed as greater or less than the maximum or minimum concentration tested.

[4] = group with IC50 greater than 100 nM

T1 sequence (P12931 whole entry): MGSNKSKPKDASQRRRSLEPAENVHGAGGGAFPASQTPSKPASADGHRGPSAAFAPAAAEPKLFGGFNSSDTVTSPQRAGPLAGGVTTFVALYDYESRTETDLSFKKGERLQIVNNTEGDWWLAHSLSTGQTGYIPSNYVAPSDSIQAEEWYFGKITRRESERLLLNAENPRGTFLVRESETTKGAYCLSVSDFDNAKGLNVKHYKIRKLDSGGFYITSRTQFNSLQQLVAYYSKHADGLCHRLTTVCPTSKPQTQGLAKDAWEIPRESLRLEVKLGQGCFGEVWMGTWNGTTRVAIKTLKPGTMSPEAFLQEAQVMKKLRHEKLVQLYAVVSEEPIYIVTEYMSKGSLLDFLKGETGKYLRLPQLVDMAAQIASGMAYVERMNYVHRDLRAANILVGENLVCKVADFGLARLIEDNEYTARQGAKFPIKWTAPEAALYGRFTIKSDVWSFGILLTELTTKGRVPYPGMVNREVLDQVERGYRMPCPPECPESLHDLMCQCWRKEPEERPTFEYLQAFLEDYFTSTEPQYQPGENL

SMILES | IC50 ([1]; 40 minutes at room temperature) [nM] | IC50 [1, 4] [nM] | IC50 [2] [nM] | IC50 ([3]; 40 minutes at room temperature) [nM] | IC50 [3, 4] [nM] | GI50 (HCT116 cells) [nM] | IC50 (HCT116 cells) [nM]
Cc1cc(Nc2cc(NC3CCOCC3)nc(-c3ccc4ccccc4c3)n2)n[nH]1 [Example 128, N^4-(5-methyl-1H-pyrazol-3-yl)-2-(naphthalen-2-yl)-N^6-(tetrahydro-2H-pyran-4-yl)pyrimidine-4,6-diamine] | ≤ 100 | – | ≤ 100 | ≤ 100 | – | – | 1000 to 10000
Cc1cc(Nc2cc(N(C)CCN(C)C)nc(-c3cccc(C)c3C)n2)n[nH]1 [Example 182, N^4-(2-(dimethylamino)ethyl)-2-(2,3-dimethylphenyl)-N^4-methyl-N^6-(5-methyl-1H-pyrazol-3-yl)pyrimidine-4,6-diamine] | – | ≤ 1000 | ≤ 100 | – | ≤ 1000 | – | 1000 to 10000
Cc1cc(Nc2cc(N(C)CCN(C)C)nc(-c3cc(F)ccc3F)n2)n[nH]1 [Example 183, 2-(2,5-difluorophenyl)-N^4-(2-(dimethylamino)ethyl)-N^4-methyl-N^6-(5-methyl-1H-pyrazol-3-yl)pyrimidine-4,6-diamine] | – | ≤ 1000 | ≤ 100 | ≤ 100 | – | – | 1000 to 10000
CCc1ccccc1-c1nc(Nc2cc(C)[nH]n2)cc(N(C)CCN(C)C)n1 [Example 186, N^4-(2-(dimethylamino)ethyl)-2-(2-ethylphenyl)-N^4-methyl-N^6-(5-methyl-1H-pyrazol-3-yl)pyrimidine-4,6-diamine] | – | ≤ 1000 | ≤ 100 | – | ≤ 1000 | – | 1000 to 10000

The next lines start with results.

IC50 ([1]; 40 minutes at room temperature) [nM] | IC50 [1, 4] [nM] | IC50 [2] [nM] | IC50 ([3]; 40 minutes at room temperature) [nM] | IC50 [3, 4] [nM] | SMILES | GI50 (HCT116 cells) [nM] | IC50 (HCT116 cells) [nM]
≤ 100 | ≤ 1000 | ≤ 100 | ≤ 100 | – | Cc1cc(Nc2cc(N(C)CCN(C)C)nc(-c3ccccc3Cl)n2)n[nH]1 [Compound 50, 2-(2-chlorophenyl)-N4-(2-(dimethylamino)ethyl)-N4-methyl-N6-(5-methyl-1H-pyrazol-3-yl)pyrimidine-4,6-diamine] | ≤ 1000 | 1000 to 10000
– | ≤ 1000 | ≤ 100 | ≤ 100 | – | Cc1cc(Nc2cc(N(C)CCN(C)C)nc(-c3ccccc3C(F)(F)F)n2)n[nH]1 [Compound 114, N^4-(2-(dimethylamino)ethyl)-N^4-methyl-N^6-(5-methyl-1H-pyrazol-3-yl)-2-(2-(trifluoromethyl)phenyl)pyrimidine-4,6-diamine] | – | 1000 to 10000
– | ≤ 1000 | ≤ 100 | – | ≤ 1000 | Cc1cc(Nc2cc(N(C)CCN(C)C)nc(-c3cccc4ccccc34)n2)n[nH]1 [Example 141, N^4-(2-(dimethylamino)ethyl)-N^4-methyl-N^6-(5-methyl-1H-pyrazol-3-yl)-2-(naphthalen-1-yl)pyrimidine-4,6-diamine] | ≤ 1000 | –
– | ≤ 1000 | ≤ 100 | – | ≤ 1000 | Cc1cc(Nc2cc(N3CCN(C)CC3)nc(-c3ccc(F)cc3F)n2)n[nH]1 [Example 189, 2-(2,4-difluorophenyl)-N-(5-methyl-1H-pyrazol-3-yl)-6-(4-methylpiperazin-1-yl)pyrimidin-4-amine] | – | 1000 to 10000
